Assay results taken from BindingDB's records for doi:10.1016/j.bmcl.2011.07.110 (Second Military Medical University, 2011).

target: Acrosin (Homo sapiens, UniProt P10323); assay: Inhibition of human acrosin using N-alpha-benzoyl-DL-arginine para-nitroanilide-HCl as substrate after 3 hrs by spectrophotometry
Sequence (P10323 20-42 limits assumed): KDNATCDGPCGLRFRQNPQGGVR
Sequence (P10323 43-343 limits assumed): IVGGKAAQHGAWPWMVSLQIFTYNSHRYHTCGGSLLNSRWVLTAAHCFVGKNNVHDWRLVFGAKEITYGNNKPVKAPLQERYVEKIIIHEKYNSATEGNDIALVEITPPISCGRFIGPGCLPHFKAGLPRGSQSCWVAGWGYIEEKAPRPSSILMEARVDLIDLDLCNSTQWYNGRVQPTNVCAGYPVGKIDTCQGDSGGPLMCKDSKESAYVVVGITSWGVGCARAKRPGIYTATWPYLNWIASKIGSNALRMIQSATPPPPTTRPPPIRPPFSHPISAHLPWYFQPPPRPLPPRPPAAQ

| Structure (SMILES) | IC50 [mM] |
| --- | --- |
| CCOC(=O)c1cc(-c2ccc(NC(C)=O)cc2)[nH]n1 | 23 |
| CCOC(=O)c1cc(-c2ccc(NC(=O)CC)cc2)[nH]n1 | 14 |
| CCCC(=O)Nc1ccc(-c2cc(C(=O)OCC)[nH]n2)cc1 | 17 |
| CCOC(=O)c1cc(-c2ccc(NC(=O)c3ccc(F)cc3)cc2)[nH]n1 | 2.4 |
| CCOC(=O)c1cc(-c2ccc(NC(=O)c3c(F)cccc3F)cc2)[nH]n1 | 3.98 |
| CCOC(=O)c1cc(-c2ccc(NC(=O)c3ccccc3Cl)cc2)n[nH]1 | 0.11 |
| CCOC(=O)c1cc(-c2ccc(NC(=O)c3ccc(Cl)cc3)cc2)n[nH]1 | 3.31 |
| CCOC(=O)c1cc(-c2ccc(NC(=O)c3ccc(Cl)cc3Cl)cc2)[nH]n1 | 0.44 |
| CCOC(=O)c1cc(-c2ccc(NC(=O)c3c(Cl)cccc3Cl)cc2)n[nH]1 | 4.8 |
| CCOC(=O)c1cc(-c2ccc(NC(=O)c3ccc(OC)cc3)cc2)n[nH]1 | 0.8 |
| CCOC(=O)c1cc(-c2ccc(NC(=O)c3ccc(CCl)cc3)cc2)n[nH]1 | 3.31 |
| CCOC(=O)c1cc(-c2ccc(NC(=O)C(CC)c3ccccc3)cc2)n[nH]1 (configuration not stated) | 3.3 |
| CCOC(=O)c1cc(-c2ccc(NS(=O)(=O)c3ccc(C)cc3)cc2)[nH]n1 | 0.032 |

Further lines, results first:

| IC50 [mM] | Structure (SMILES) |
| --- | --- |
| 72 | CCCCC(=O)Nc1ccc(-c2cc(C(=O)OCC)n[nH]2)cc1 |
| 7.9 | CCOC(=O)c1cc(-c2ccc(NC(=O)C(F)(F)F)cc2)[nH]n1 |
| 5.76 | CCOC(=O)c1cc(-c2ccc(NC(=O)CCCl)cc2)[nH]n1 |
| 9.25 | CCOC(=O)c1cc(-c2ccc(NC(=O)CCC(=O)O)cc2)[nH]n1 |
| 17.4 | CCOC(=O)c1cc(-c2ccc(NC(=O)CCCC(=O)O)cc2)n[nH]1 |
| 8 | CCOC(=O)c1cc(-c2ccc(NC(=O)c3ccccc3)cc2)n[nH]1 |
| 2.4 | CCOC(=O)c1cc(-c2ccc(NC(=O)c3ccccc3Br)cc2)n[nH]1 |
| 34.6 | CCOC(=O)c1cc(-c2ccc(NC(=O)c3ccc(C)cc3)cc2)n[nH]1 |
| 0.47 | CCOC(=O)c1cc(-c2ccc(NC(=O)Cc3ccccc3)cc2)[nH]n1 |
